Assay results reported in ChEMBL document CHEMBL4619760, “Anti-inflammatory Efficacy of Combined Natural Alkaloid Berberine and S1PR Modulator Fingolimod at Low Doses in Ulcerative Colitis Preclinical Models” (J Nat Prod, 2020).
Activity calls are given as the source filed them.

What was measured:
Mus musculus [1] = test: Anti-colitis activity against DSS-induced C57BL/6 mouse model of chronic relapsing colitis assessed as reduction in disease activity index at 0.15 mg/kg, po administered once daily for 30 days starting from day 13 post DSS-challenge cotreated with 20 mg/kg berberine and measured on day 43; assay type: functional, organism-based
Mus musculus [2] = test: Anti-colitis activity against DSS-induced C57BL/6 mouse model of subchronic relapsing colitis assessed as effect on body weight at 0.15 mg/kg, po administered once daily for 14 days starting from day 5 post DSS-challenge cotreated with 20 mg/kg berberine and measured after day 12 to day 18; assay type: functional, organism-based
Mus musculus [3] = test: (§1) Anti-colitis activity against DSS-induced C57BL/6 mouse model of subchronic relapsing colitis assessed as reduction in spleen swelling at 0.15 mg/kg, po administered once daily for 14 days starting from day 5 post DSS-challenge cotreated with 20 mg/kg berberine and measured after day 12 to day 18; assay type: functional, organism-based
[4] = (§2) Toxicity in DSS-induced C57BL/6 mouse model of chronic relapsing colitis assessed as induction of abnormalities in lung at 0.3 mg/kg, po administered once daily for 30 days starting from day 13 post DSS-challenge by hematoxylin and eosin staining based light microscopic analysis; assay type: organism-based; details: in vivo, 720 h
[5] = Toxicity in DSS-induced C57BL/6 mouse model of chronic relapsing colitis assessed as induction of abnormalities in kidney at 0.3 mg/kg, po administered once daily for 30 days starting from day 13 post DSS-challenge by hematoxylin and eosin staining based light microscopic analysis; assay type: organism-based; details: in vivo, 720 h
[6] = molecular target: Signal transducer and activator of transcription 3 (Homo sapiens) (UniProt P40763); test: Inhibition of STAT3 activation in human THP1 cells assessed as reduction in LPS-induced phosphorylated STAT3 expression at 1 uM incubated for 1 hr followed by LPS challenge and measured after 4 to 6 hrs by Western blot analysis; assay type: cell-based; details: THP-1
Mus musculus [7] = test: Anti-colitis activity against DSS-induced C57BL/6 mouse model of chronic relapsing colitis assessed as reduction in stool bleeding at 0.3 mg/kg, po administered once daily for 30 days starting from day 13 post DSS-challenge measured on day 43; assay type: functional, organism-based
Mus musculus [8] = test: Anti-colitis activity against DSS-induced C57BL/6 mouse model of subchronic relapsing colitis assessed as reduction in DSS-induced colon swelling at 0.15 mg/kg, po administered once daily for 30 days starting from day 13 post DSS-challenge cotreated with 20 mg/kg berberine; assay type: functional, organism-based
Mus musculus [9] = test: (§3) Anti-colitis activity against DSS-induced C57BL/6 mouse model of chronic relapsing colitis assessed as reduction in DSS-induced multiple erosive lesions in colon at 0.15 mg/kg, po administered once daily for 30 days starting from day 13 post DSS-challenge cotreated with 20 mg/kg berberine by hematoxylin and eosin staining based light microscopic analysis; assay type: functional, organism-based
Mus musculus [10] = test: Anti-colitis activity against DSS-induced C57BL/6 mouse model of chronic relapsing colitis assessed as reduction in disease activity index at 0.15 mg/kg, po administered once daily for 30 days starting from day 13 post DSS-challenge cotreated with 20 mg/kg berberine and measured on day 24; assay type: functional, organism-based
[11] = as §2, with “0.15” for “0.3”, “DSS-challenge cotreated with 20 mg/kg berberine” for “DSS-challenge”; assay type: organism-based; details: in vivo, 720 h
[12] = Toxicity in DSS-induced C57BL/6 mouse model of chronic relapsing colitis assessed as induction of abnormalities in heart at 0.3 mg/kg, po administered once daily for 30 days starting from day 13 post DSS-challenge by hematoxylin and eosin staining based light microscopic analysis; assay type: organism-based; details: in vivo, 720 h
Mus musculus [13] = test: Antiinflammatory activity against DSS-induced C57BL/6 mouse model of subchronic relapsing colitis assessed as reduction in IL6 mRNA level at 0.3 mg/kg, po administered once daily for 14 days starting from day 5 post DSS-challenge by RT-qPCR analysis; assay type: functional, organism-based
Mus musculus [14] = test: Anti-colitis activity against DSS-induced C57BL/6 mouse model of chronic relapsing colitis assessed as reduction in stool bleeding at 0.15 mg/kg, po administered once daily for 30 days starting from day 13 post DSS-challenge cotreated with 20 mg/kg berberine and measured on day 43; assay type: functional, organism-based
Mus musculus [15] = test: Antiinflammatory activity against DSS-induced C57BL/6 mouse model of subchronic relapsing colitis assessed as reduction in IL17 mRNA level at 0.15 mg/kg, po administered once daily for 14 days starting from day 5 post DSS-challenge cotreated with 20 mg/kg berberine by RT-qPCR analysis; assay type: functional, organism-based
Mus musculus [16] = test: Anti-colitis activity against DSS-induced C57BL/6 mouse model of chronic relapsing colitis assessed as reduction in stool consistency score at 0.3 mg/kg, po administered once daily for 30 days starting from day 13 post DSS-challenge measured on day 43; assay type: functional, organism-based
Mus musculus [17] = test: as §1, with “stool bleeding score” for “spleen swelling”; assay type: functional, organism-based
Mus musculus [18] = test: Anti-colitis activity against DSS-induced C57BL/6 mouse model of subchronic relapsing colitis assessed as reduction in spleen swelling at 0.3 mg/kg, po administered once daily for 14 days starting from day 5 post DSS-challenge; assay type: functional, organism-based
Mus musculus [19] = test: as §3, with “loss of” for “multiple erosive lesions in”, “colon crypt and columnar epithelium” for “colon”; assay type: functional, organism-based
Mus musculus [20] = test: Anti-colitis activity against DSS-induced C57BL/6 mouse model of chronic relapsing colitis assessed as reduction in stool bleeding at 0.15 mg/kg, po administered once daily for 30 days starting from day 13 post DSS-challenge cotreated with 20 mg/kg berberine and measured on day 38; assay type: functional, organism-based
Mus musculus [21] = test: Anti-colitis activity against DSS-induced C57BL/6 mouse model of subchronic relapsing colitis assessed as effect on body weight at 0.3 mg/kg, po administered once daily for 14 days starting from day 5 post DSS-challenge and measured after day 12 to day 18; assay type: functional, organism-based
Mus musculus [22] = test: Anti-colitis activity against DSS-induced C57BL/6 mouse model of chronic relapsing colitis assessed as reduction in stool consistency score at 0.3 mg/kg, po administered once daily for 30 days starting from day 13 post DSS-challenge measured on day 24; assay type: functional, organism-based
THP-1 = test: Antiinflammatory activity in human THP1 cells assessed as reduction in LPS-induced IL6 mRNA level at 0.5 uM cotreated with 0.5 uM berberine incubated for 1 hr followed by LPS challenge and measured after 4 to 6 hrs by q-PCR method; assay type: functional, cell-based
Mus musculus [23] = test: Effect on total S1PR1 expression in DSS-induced C57BL/6 mouse model of subchronic relapsing colitis at 0.3 mg/kg, po administered once daily for 14 days starting from day 5 post DSS-challenge by Western blot analysis; assay type: ADME, organism-based; details: in vivo, 336 h
Mus musculus [24] = test: Anti-colitis activity against DSS-induced C57BL/6 mouse model of subchronic relapsing colitis assessed as reduction in DSS-induced colon swelling at 0.3 mg/kg, po administered once daily for 30 days starting from day 13 post DSS-challenge; assay type: functional, organism-based
Mus musculus [25] = test: Anti-colitis activity against DSS-induced C57BL/6 mouse model of subchronic relapsing colitis assessed as reduction in DSS-induced colon shortening at 0.3 mg/kg, po administered once daily for 14 days starting from day 5 post DSS-challenge; assay type: functional, organism-based
Mus musculus [26] = test: Effect on total S1PR1 expression in DSS-induced C57BL/6 mouse model of subchronic relapsing colitis at 0.15 mg/kg, po administered once daily for 14 days starting from day 5 post DSS-challenge cotreated with 20 mg/kg berberine by Western blot analysis; assay type: ADME, organism-based; details: in vivo, 336 h

Chain of Signal transducer and activator of transcription 3 (Homo sapiens) (P40763 whole entry): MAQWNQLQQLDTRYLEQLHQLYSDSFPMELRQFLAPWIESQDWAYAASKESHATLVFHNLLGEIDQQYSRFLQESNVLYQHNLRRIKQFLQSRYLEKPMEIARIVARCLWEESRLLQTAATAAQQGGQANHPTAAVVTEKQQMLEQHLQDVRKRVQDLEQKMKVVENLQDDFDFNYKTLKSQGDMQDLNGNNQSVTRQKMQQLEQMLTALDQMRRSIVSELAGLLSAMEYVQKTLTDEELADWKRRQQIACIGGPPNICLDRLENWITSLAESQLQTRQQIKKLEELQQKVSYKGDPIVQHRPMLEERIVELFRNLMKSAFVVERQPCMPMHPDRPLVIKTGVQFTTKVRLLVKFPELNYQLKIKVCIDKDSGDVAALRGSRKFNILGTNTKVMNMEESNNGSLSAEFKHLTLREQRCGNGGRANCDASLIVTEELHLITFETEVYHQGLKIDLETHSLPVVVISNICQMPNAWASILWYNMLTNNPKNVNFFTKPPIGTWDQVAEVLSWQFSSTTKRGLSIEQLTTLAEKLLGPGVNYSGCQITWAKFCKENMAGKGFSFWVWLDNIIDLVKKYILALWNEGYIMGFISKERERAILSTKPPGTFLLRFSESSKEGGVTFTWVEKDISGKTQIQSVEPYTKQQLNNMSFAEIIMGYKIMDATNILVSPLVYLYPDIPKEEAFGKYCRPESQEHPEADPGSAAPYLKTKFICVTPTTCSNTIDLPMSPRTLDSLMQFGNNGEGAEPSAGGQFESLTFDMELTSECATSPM

CCCCCCCCc1ccc(CCC(N)(CO)CO)cc1.Cl [FINGOLIMOD HYDROCHLORIDE]
active: Activity (Mus musculus [1]) | inhibition [6] | Activity (Mus musculus [7]) | Activity (Mus musculus [9]) | Activity (Mus musculus [10]) | Activity (Mus musculus [13]) | Activity (Mus musculus [14]) | Activity (Mus musculus [15]) | Activity (Mus musculus [16]) | Activity (Mus musculus [17]) | Activity (Mus musculus [19]) | Activity (Mus musculus [20]) | Activity (Mus musculus [22]) | Activity (THP-1) | Activity (Mus musculus [25])
inactive: Activity (Mus musculus [2]) | Activity (Mus musculus [3]) | Activity (Mus musculus [8]) | Activity (Mus musculus [18]) | Activity (Mus musculus [21]) | Activity (Mus musculus [24])
Non-Toxic: Activity [4] | Activity [5] | Activity [11] | Activity [12] | Activity (Mus musculus [23]) | Activity (Mus musculus [26])
